Where two headings read alike, the source gives them in different places.
Experiments:
Pyricularia oryzae [1] = assay type: cell-based; details: PO, 48 hours
Cladosporium cucumerinum [2] = test: Spore germination test; assay type: cell-based; details: CC, 48 hours
Method: CC = Cladosporium cucumerinum
(§1) The test chemical was dissolved or suspended in acetone in an amount such that 0.8 ml of the resulting suspension or solution, mixed with 40 ml water agar produced a water agar solution containing 40, 10, 2.5 and 1 ppm of test chemical. The resulting agar solution, at 50° C., was then divided equally between two sterile petri dishes, each having four separated quadrants, and allowed to solidify. […] quadrants of each dish were flooded with 0.1 ml of a spore suspension in sterile water. Spores of two pathogens, Erysiphe polygoni and Uromyes phaseoli, from infected plant leaves, were brushed on the remaining two quadrants. The tests were then incubated 48 hours, at 24° C.
(§2) Readings were then taken and the percentage of germinated spores calculated. From this percentage, a spore germination rating was assigned as follows: […]

Uromyces phaseoli [3] = test: Spore germination test; assay type: cell-based; details: UP, 48 hours
Method: as §1, §2

Alternaria solani [4] = test: Spore germination test; assay type: cell-based; details: AS, 48 hours
Method: as §1, §2

Erysiphe polygoni [5] = test: Spore germination test; assay type: cell-based; details: EP, 48 hours
Method: as §1, §2

Botrytis cinerea = test: Spore germination test; assay type: cell-based; details: BC, 48 hours
Method: as §1, §2

Phytophthora infestans [6] = assay type: cell-based; details: PI, 48 hours
Venturia inaequalis = test: Spore germination test; assay type: cell-based; details: VI, 48 hours
Method: VI = Venturia inaequalis
as §1, §2

Rhizoctonia solani = test: Mycelial growth test; assay type: cell-based; details: Rhizoctonia solani, 72 h, RS, read-out: Percent Fungus Growth Inhibition
Excerpt: | RS = Rhizoctonia solani

Fusarium solani [7] = test: Mycelial growth test; assay type: cell-based; details: Fusarium solani, 72 h; for inhibition at 40 ppm: read-out: Percent Fungus Growth Inhibition, PS, 40 ppm, 72 hours
Helminthosporium oryzae = test: Mycelial growth test; details: Bipolaris oryzae, 72 h
Pythium ultimum = test: Mycelial growth test; assay type: cell-based; details: Globisporangium ultimum, 72 h, PU, read-out: Percent Fungus Growth Inhibition
Sclerotinia fructicola = test: Mycelial growth test; assay type: cell-based; details: Sclerotinia, 72 h, SF, read-out: Percent Fungus Growth Inhibition
Excerpt: | SF = Sclerotinia fructicola

Alternaria solani [8] = test: Mycelial growth test; assay type: cell-based; details: Alternaria solani, 72 h, AS, read-out: Percent Fungus Growth Inhibition
Pyricularia oryzae [9] = test: microbe, parasite or virus in culture; assay type: cell-based; details: Pyricularia oryzae, 72 h; for inhibition at 5 ppm: read-out: Percent Fungus Growth Inhibition, PO, 5 ppm, 72 hours; for inhibition at 10 ppm: read-out: Percent Fungus Growth Inhibition, PO, 10 ppm, 72 hours
Cladosporium cucumerinum [10] = test: Mycelial growth test; assay type: cell-based; details: Cladosporium cucumerinum, CC, read-out: Percent Fungus Growth Inhibition
Excerpt: |CC = Cladosporium cucumerinum

Uromyces phaseoli [11] = test: whole plant or invertebrate; details: foliar, read-out: Percent Disease Control, foliar, bean rust
Erysiphe polygoni [12] = test: whole plant or invertebrate; details: foliar, 24 h, read-out: Percent Disease Control, curative, bean powdery mildew
Phytophthora infestans [13] = test: whole plant or invertebrate; assay type: in vivo; details: Phytophthora infestans, in Solanum lycopersicum, foliar, read-out: Percent Disease Control, foliar, tomato late blight, 150 ppm, protective
Fusarium solani [14] = test: Soil treatment, bean root rot; assay type: in vivo; details: Fusarium solani, soil, 336 h; 150 ppm suspension, 3.8 mg active per pot; read-out: Percent Disease Control, seed/soil, bean root rot
Method: In a similar manner the soil around a bean seedling was drenched with a sufficient amount of 150 ppm suspension of test chemical to provide 3.8 mg active per pot. Twenty-four hours later the soil was inoculated with a suspension of minced mycelium of Fusarium solani. The inoculated plants were then placed in a greenhouse, evaluated after fourteen days, and percent control of root rot damage calculated. The results, reported in Table III, indicate only a few of the compounds tested are effective in treating Bean Root Rot but that these provide a high degree of control.

Uromyces phaseoli [15] = test: whole plant or invertebrate; details: foliar, 24 h, read-out: Percent Disease Control, curative, bean rust
Pyricularia oryzae [16] = test: whole plant or invertebrate; assay type: in vivo; details: Pyricularia oryzae, foliar, 24 h, read-out: Percent Disease Control, curative, rice blast, 150 ppm, 24 hours after inoculation
Cercospora beticola = test: whole plant or invertebrate; details: in Beta vulgaris, foliar, 24 h, read-out: Percent Disease Control, curative, sugar beet leaf spot
[17] = PS, 72 hours, read-out: Percent Fungus Growth Inhibition
[18] = read-out: Percent Fungus Growth Inhibition

`CCCCNC(=O)n1c(NC(=O)OC)nc2ccccc21` [Benomyl, reference compound] was tested, and the “Spore Germination Rating” value (Pyricularia oryzae [1]; 1.0 ppm) was 4 (80-100), the “Spore Germination Rating” value (Pyricularia oryzae [1]; 2.5 ppm) was 4 (80-100) and the “Spore Germination Rating” value (Pyricularia oryzae [1]; 10 ppm) was 3 (60-80). The “Spore Germination Rating” value (Pyricularia oryzae [1]; 40 ppm) was 0 (0-10), the “Spore Germination Rating” value (Cladosporium cucumerinum [2]; 1.0 ppm) was 4 (80-100) and the “Spore Germination Rating” value (Cladosporium cucumerinum [2]; 2.5 ppm) was 4 (80-100). The “Spore Germination Rating” value (Cladosporium cucumerinum [2]; 10 ppm) was 3 (60-80), the “Spore Germination Rating” value (Cladosporium cucumerinum [2]; 40 ppm) was 0 (0-10) and the “Spore Germination Rating” value (Uromyces phaseoli [3]; 1.0 ppm) was 4 (80-100). For the same molecule, the “Spore Germination Rating” value (Uromyces phaseoli [3]; 2.5 ppm) was 1 (10-40), the “Spore Germination Rating” value (Uromyces phaseoli [3]; 10 ppm) was 1 (10-40) and the “Spore Germination Rating” value (Uromyces phaseoli [3]; 40 ppm) was 0 (0-10). For the same molecule, the “Spore Germination Rating” value (Alternaria solani [4]; 1.0 ppm) was 4 (80-100), the “Spore Germination Rating” value (Alternaria solani [4]; 2.5 ppm) was 4 (80-100) and the “Spore Germination Rating” value (Alternaria solani [4]; 10 ppm) was 4 (80-100). The “Spore Germination Rating” value (Alternaria solani [4]; 40 ppm) was 4 (80-100), the “Spore Germination Rating” value (Erysiphe polygoni [5]; 1.0 ppm) was 2 (40-60) and the “Spore Germination Rating” value (Erysiphe polygoni [5]; 2.5 ppm) was 2 (40-60). The “Spore Germination Rating” value (Erysiphe polygoni [5]; 10 ppm) was 0 (0-10), the “Spore Germination Rating” value (Erysiphe polygoni [5]; 40 ppm) was 0 (0-10) and the “Spore Germination Rating” value (Botrytis cinerea; 1.0 ppm) was 4 (80-100). For the same molecule, the “Spore Germination Rating” value (Botrytis cinerea; 2.5 ppm) was 4 (80-100), the “Spore Germination Rating” value (Botrytis cinerea; 10 ppm) was 4 (80-100) and the “Spore Germination Rating” value (Botrytis cinerea; 40 ppm) was 4 (80-100). For the same molecule, the “Spore Germination Rating” value (Phytophthora infestans [6]; 1.0 ppm) was 2 (40-60), the “Spore Germination Rating” value (Phytophthora infestans [6]; 2.5 ppm) was 2 (40-60) and the “Spore Germination Rating” value (Phytophthora infestans [6]; 10 ppm) was 0 (0-10). For the same molecule, the “Spore Germination Rating” value (Phytophthora infestans [6]; 40 ppm) was 1 (10-40), the “Spore Germination Rating” value (Venturia inaequalis; 1.0 ppm) was 3 (60-80) and the “Spore Germination Rating” value (Venturia inaequalis; 2.5 ppm) was 3 (60-80). For the same molecule, the “Spore Germination Rating” value (Venturia inaequalis; 10 ppm) was 0 (0-10) and the “Spore Germination Rating” value (Venturia inaequalis; 40 ppm) was 0 (0-10).

`O=C1C2CC=CCC2C(=O)N1SC(Cl)(Cl)Cl` (stereo not drawn) [Captan, reference compound] was tested, and the inhibition at 5 ppm (Rhizoctonia solani) was 0%, the inhibition at 10 ppm (Rhizoctonia solani) was 0% and the inhibition at 20 ppm (Rhizoctonia solani) was 0%. It also gave an inhibition at 40 ppm (Rhizoctonia solani) of 0%, an inhibition at 5 ppm (Fusarium solani [7]; [17]) of 19% and an inhibition at 10 ppm (Fusarium solani [7]; [17]) of 33%. For the same molecule, the inhibition at 20 ppm (Fusarium solani [7]; [17]) was 48%, the inhibition at 40 ppm (Fusarium solani [7]) was 44% and the inhibition at 5 ppm (Helminthosporium oryzae; [18]) was 18%. It also gave an inhibition at 10 ppm (Helminthosporium oryzae; [18]) of 46%, an inhibition at 20 ppm (Helminthosporium oryzae; [18]) of 62% and an inhibition at 40 ppm (Helminthosporium oryzae; [18]) of 65%. It also gave an inhibition at 5 ppm (Pythium ultimum) of 0%, an inhibition at 10 ppm (Pythium ultimum) of 0% and an inhibition at 20 ppm (Pythium ultimum) of 0%. It also gave an inhibition at 40 ppm (Pythium ultimum) of 0%.

For `N#Cc1c(Cl)c(Cl)c(Cl)c(C#N)c1Cl` [Chlorothalonil, reference compound], the inhibition at 5 ppm (Rhizoctonia solani) was 31%, the inhibition at 10 ppm (Rhizoctonia solani) was 40% and the inhibition at 20 ppm (Rhizoctonia solani) was 53%. The inhibition at 40 ppm (Rhizoctonia solani) was 73%, the inhibition at 5 ppm (Sclerotinia fructicola) was 67% and the inhibition at 10 ppm (Sclerotinia fructicola) was 70%. It also gave an inhibition at 20 ppm (Sclerotinia fructicola; 20 ppm) of 76%, an inhibition at 40 ppm (Sclerotinia fructicola; 40 ppm) of 82% and an inhibition at 5 ppm (Fusarium solani [7]; [17]) of 41%. For the same molecule, the inhibition at 10 ppm (Fusarium solani [7]; [17]) was 41%, the inhibition at 20 ppm (Fusarium solani [7]; [17]) was 76% and the inhibition at 40 ppm (Fusarium solani [7]) was 88%. It also gave an inhibition at 5 ppm (Helminthosporium oryzae; [18]) of 50%, an inhibition at 10 ppm (Helminthosporium oryzae; [18]) of 59% and an inhibition at 20 ppm (Helminthosporium oryzae; [18]) of 73%. The inhibition at 40 ppm (Helminthosporium oryzae; [18]) was 95%, the inhibition at 5 ppm (Pythium ultimum) was 0% and the inhibition at 10 ppm (Pythium ultimum) was 31%. The inhibition at 20 ppm (Pythium ultimum) was 100%, the inhibition at 40 ppm (Pythium ultimum) was 100% and the inhibition at 5 ppm (Alternaria solani [8]) was 44%. The inhibition at 10 ppm (Alternaria solani [8]) was 50%, the inhibition at 20 ppm (Alternaria solani [8]; 20 ppm) was 38% and the inhibition at 40 ppm (Alternaria solani [8]; 40 ppm) was 75%. It also gave an inhibition at 5 ppm (Pyricularia oryzae [9]) of 26%, an inhibition at 10 ppm (Pyricularia oryzae [9]) of 15% and an inhibition at 20 ppm (Pyricularia oryzae [9]; read-out: Percent Fungus Growth Inhibition, PO, 20 ppm, 72 hours) of 41%. It also gave an inhibition at 40 ppm (Pyricularia oryzae [9]; read-out: Percent Fungus Growth Inhibition, PO, 40 ppm, 72 hours) of 48%, an inhibition at 5 ppm (Cladosporium cucumerinum [10]; 72 h, 5 ppm) of 63% and an inhibition at 10 ppm (Cladosporium cucumerinum [10]; 72 h, 10 ppm) of 63%. It also gave an inhibition at 40 ppm (Cladosporium cucumerinum [10]; 72 h, 40 ppm) of 96% and an inhibition at 20 ppm (Cladosporium cucumerinum [10]; CC20, 72 h, 20 ppm) of 71%.

In the case of `O=c1c(Cl)nsnc1Cl` [Compound 1, 3,5-dichloro-4H--1,2,6-thiadiazin-4-one], the inhibition at 2.5 ppm (Rhizoctonia solani; 2.5 ppm) was 100%, the inhibition at 5 ppm (Rhizoctonia solani) was 64% and the inhibition at 10 ppm (Rhizoctonia solani) was 100%. It also gave a pest or weed control at 150 ppm (Uromyces phaseoli [11]) of 0%, an inhibition at 2.5 ppm (Sclerotinia fructicola; 2.5 ppm) of 100% and an inhibition at 5 ppm (Sclerotinia fructicola) of 100%. The inhibition at 10 ppm (Sclerotinia fructicola) was 100%, the inhibition at 2.5 ppm (Fusarium solani [7]; PS, 2.5 ppm, 72 hours, read-out: Percent Fungus Growth Inhibition) was 85% and the inhibition at 5 ppm (Fusarium solani [7]; [17]) was 100%. For the same molecule, the inhibition at 10 ppm (Fusarium solani [7]; [17]) was 100%, the inhibition at 2.5 ppm (Helminthosporium oryzae; read-out: Percent Fungus Growth Inhibition, HO, 2.5 ppm, 72 hours) was 100% and the inhibition at 5 ppm (Helminthosporium oryzae; read-out: Percent Fungus Growth Inhibition, HO, 5 ppm, 72 hours) was 100%. For the same molecule, the inhibition at 10 ppm (Helminthosporium oryzae; read-out: Percent Fungus Growth Inhibition, HO, 10 ppm, 72 hours) was 100%, the inhibition at 2.5 ppm (Pythium ultimum; 2.5 ppm) was 0% and the inhibition at 5 ppm (Pythium ultimum) was 0%. It also gave an inhibition at 10 ppm (Pythium ultimum) of 100%, an inhibition at 2.5 ppm (Alternaria solani [8]; 2.5 ppm) of 100% and an inhibition at 5 ppm (Alternaria solani [8]) of 100%. It also gave an inhibition at 10 ppm (Alternaria solani [8]) of 100%, a pest or weed control at 150 ppm (Erysiphe polygoni [12]) of 0% and a pest or weed control at 150 ppm (Phytophthora infestans [13]) of 0%. For the same molecule, the inhibition at 2.5 ppm (Pyricularia oryzae [9]; read-out: Percent Fungus Growth Inhibition, PO, 2.5 ppm, 72 hours) was 27%, the inhibition at 5 ppm (Pyricularia oryzae [9]) was 42% and the inhibition at 10 ppm (Pyricularia oryzae [9]) was 82%. The pest or weed control at 150 ppm, 3.8 mg/pot (Fusarium solani [14]) was 0%, the pest or weed control at 150 ppm (Uromyces phaseoli [15]) was 0% and the pest or weed control at 150 ppm (Pyricularia oryzae [16]) was 0%. For the same molecule, the pest or weed control at 150 ppm (Cercospora beticola) was 0%.

— patent US4450269A, “Mono-5-substituted-3-chloro-4H-1,2,6-thiadiazin-4-one antifungal agents” (FMC Corporation, priority 1980, dated 1984)
